Results: patent US10597388B2, “Pyridazinone herbicides” (FMC CORPORATION, priority 2014, dated 2020)

Columns and labels:
Assay in all cases: Test D controlled growth environment herbicide test, pre- and postemergence
Assay type in all cases: in vivo
[1] = system: canarygrass (Phalaris minor)
Procedure, shortened: (§1)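 Pre-emergence: seeds sown in silt loam soil were sprayed with compound in a non-phytotoxic solvent mix containing surfactant. Post-emergence: plants at 2 to 18 cm (1- to 4-leaf stage) in peat moss/vermiculite medium got the same formulation. Visual 0–100 rating versus controls after 14 to 21 d.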

[2] = system: wheat, spring (spring wheat, Triticum aestivum)
Procedure, shortened: as §1

[3] = system: oat, wild (wild oat, Avena fatua)
Procedure, shortened: as §1

[4] = system: ryegrass, Italian (Italian ryegrass, Lolium multiflorum)
Procedure, shortened: as §1

[5] = system: field violet (Viola arvensis)
Procedure, shortened: as §1

[6] = system: blackgrass (Alopecurus myosuroides)
Procedure, shortened: as §1

[7] = system: chamomile (scentless chamomile, Matricaria inodora)
Procedure, shortened: as §1

[8] = system: foxtail, green (green foxtail, Setaria viridis)
Procedure, shortened: as §1

[9] = system: bluegrass (annual bluegrass, Poa annua)
Procedure, shortened: as §1

[10] = system: barley, spring (spring barley, Hordeum vulgare)
Procedure, shortened: as §1

[11] = system: pigweed (Amaranthus retroflexus)
Procedure, shortened: as §1

[12] = system: radish, wild (wild radish, Raphanus raphanistrum)
Procedure, shortened: as §1

[13] = system: buckwheat, wild (wild buckwheat, Polygonum convolvulus)
Procedure, shortened: as §1

[14] = Postemergence, 31 g ai/ha, scale 0 to 100 (0 no effect, 100 complete control)
[15] = Postemergence, 125 g ai/ha, visual rating on scale 0 (no effect) to 100 (complete control), 14 to 21 d
[16] = Postemergence, 250 g ai/ha, scale 0 to 100 (0 no effect, 100 complete control)
[17] = Preemergence, 62 g ai/ha, scale 0 to 100 (0 no effect, 100 complete control)
[18] = Preemergence, 125 g ai/ha, scale 0 to 100 (0 no effect, 100 complete control)
[19] = Preemergence, 250 g ai/ha, scale 0 to 100 (0 no effect, 100 complete control)
[20] = postemergence, 62 g ai/ha, scale 0 to 100, 0 no effect, 100 complete control

SMILES: Cc1ccc2ccccc2c1-c1c(O)c(C)nn(C)c1=O [Compound 59]
- Canarygrass plant response rating [1, 14]: 75
- Plant response rating, Canarygrass [1, 15]: 90
- Plant response rating, Canarygrass [1, 16]: 90
- Plant response rating (scale of 0 to 100), Canarygrass ([1]; Preemergence, 31 g ai/ha): 80
- Plant response rating, Canarygrass [1, 17]: 90
- Plant response rating, Canarygrass [1, 18]: 95
- Plant response rating, Canarygrass [1, 19]: 100
- Plant response rating, Canarygrass [1, 20]: 80
- Wheat, Spring plant response rating [2, 14]: 40
- Plant response rating, Wheat, Spring [2, 15]: 70
- Plant response rating, Wheat, Spring [2, 16]: 80
- Plant response rating (scale of 0 to 100), Wheat, Spring ([2]; Preemergence, 31 g ai/ha): 35
- Plant response rating, Wheat, Spring [2, 17]: 65
- Plant response rating, Wheat, Spring [2, 18]: 80
- Plant response rating, Wheat, Spring [2, 19]: 85
- Plant response rating, Wheat, Spring [2, 20]: 45
- Oat, Wild plant response rating [3, 14]: 80
- Plant response rating, Oat, Wild [3, 15]: 95
- Plant response rating, Oat, Wild [3, 16]: 98
- Plant response rating (scale of 0 to 100), Oat, Wild ([3]; Preemergence, 31 g ai/ha): 90
- Plant response rating, Oat, Wild [3, 17]: 90
- Plant response rating, Oat, Wild [3, 18]: 95
- Plant response rating, Oat, Wild [3, 19]: 100
- Plant response rating, Oat, Wild [3, 20]: 90
- Ryegrass, Italian plant response rating [4, 14]: 80
- Plant response rating, Ryegrass, Italian [4, 15]: 90
- Plant response rating, Ryegrass, Italian [4, 16]: 90
- Plant response rating (scale of 0 to 100), Ryegrass, Italian ([4]; Preemergence, 31 g ai/ha): 100
- Plant response rating, Ryegrass, Italian [4, 17]: 100
- Plant response rating, Ryegrass, Italian [4, 18]: 100
- Plant response rating, Ryegrass, Italian [4, 19]: 100
- Plant response rating, Ryegrass, Italian [4, 20]: 90
- Field Violet plant response rating [5, 14]: 75
- Plant response rating, Field Violet [5, 15]: 95
- Plant response rating, Field Violet [5, 16]: 95
- Plant response rating (scale of 0 to 100), Field Violet ([5]; Preemergence, 31 g ai/ha): 80
- Plant response rating, Field Violet [5, 17]: 90
- Plant response rating, Field Violet [5, 18]: 95
- Plant response rating, Field Violet [5, 19]: 100
- Plant response rating, Field Violet [5, 20]: 80
- Blackgrass plant response rating [6, 14]: 70
- Plant response rating, Blackgrass [6, 15]: 85
- Plant response rating, Blackgrass [6, 16]: 85
- Plant response rating (scale of 0 to 100), Blackgrass ([6]; Preemergence, 31 g ai/ha): 85
- Plant response rating, Blackgrass [6, 17]: 90
- Plant response rating, Blackgrass [6, 18]: 95
- Plant response rating, Blackgrass [6, 19]: 100
- Plant response rating, Blackgrass [6, 20]: 80
- Chamomile plant response rating [7, 14]: 80
- Plant response rating, Chamomile [7, 15]: 85
- Plant response rating, Chamomile [7, 16]: 100
- Plant response rating (scale of 0 to 100), Chamomile ([7]; Preemergence, 31 g ai/ha): 100
- Plant response rating, Chamomile [7, 17]: 95
- Plant response rating, Chamomile [7, 18]: 100
- Plant response rating, Chamomile [7, 19]: 100
- Plant response rating, Chamomile [7, 20]: 80
- Foxtail, Green plant response rating [8, 14]: 65
- Plant response rating, Foxtail, Green [8, 15]: 75
- Plant response rating, Foxtail, Green [8, 16]: 85
- Plant response rating (scale of 0 to 100), Foxtail, Green ([8]; Preemergence, 31 g ai/ha): 55
- Plant response rating, Foxtail, Green [8, 17]: 75
- Plant response rating, Foxtail, Green [8, 18]: 85
- Plant response rating, Foxtail, Green [8, 19]: 100
- Plant response rating, Foxtail, Green [8, 20]: 70
- Bluegrass plant response rating [9, 14]: 25
- Plant response rating, Bluegrass [9, 15]: 55
- Plant response rating, Bluegrass [9, 16]: 75
- Plant response rating (scale of 0 to 100), Bluegrass ([9]; Preemergence, 31 g ai/ha): 30
- Plant response rating, Bluegrass [9, 17]: 50
- Plant response rating, Bluegrass [9, 18]: 75
- Plant response rating, Bluegrass [9, 19]: 80
- Plant response rating, Bluegrass [9, 20]: 40
- Barley, Spring plant response rating [10, 14]: 25
- Plant response rating, Barley, Spring [10, 15]: 40
- Plant response rating, Barley, Spring [10, 16]: 60
- Plant response rating (scale of 0 to 100), Barley, Spring ([10]; Preemergence, 31 g ai/ha): 5
- Plant response rating, Barley, Spring [10, 17]: 25
- Plant response rating, Barley, Spring [10, 18]: 40
- Plant response rating, Barley, Spring [10, 19]: 60
- Plant response rating, Barley, Spring [10, 20]: 30
- Pigweed plant response rating [11, 14]: 80
- Plant response rating, Pigweed [11, 15]: 100
- Plant response rating, Pigweed [11, 16]: 100
- Plant response rating (scale of 0 to 100), Pigweed ([11]; Preemergence, 31 g ai/ha): 95
- Plant response rating, Pigweed [11, 17]: 100
- Plant response rating, Pigweed [11, 18]: 100
- Plant response rating, Pigweed [11, 19]: 100
- Plant response rating, Pigweed [11, 20]: 85
- Radish, Wild plant response rating [12, 14]: 95
- Plant response rating, Radish, Wild [12, 15]: 100
- Plant response rating, Radish, Wild [12, 16]: 100
- Plant response rating, Radish, Wild [12, 17]: 85
- Plant response rating, Radish, Wild [12, 18]: 95
- Plant response rating, Radish, Wild [12, 19]: 100
- Plant response rating, Radish, Wild [12, 20]: 95
- Buckwheat, Wild plant response rating [13, 14]: 65
- Plant response rating, Buckwheat, Wild [13, 15]: 100
- Plant response rating, Buckwheat, Wild [13, 16]: 100
- Plant response rating (scale of 0 to 100), Buckwheat, Wild ([13]; Preemergence, 31 g ai/ha): 20
- Plant response rating, Buckwheat, Wild [13, 17]: 65
- Plant response rating, Buckwheat, Wild [13, 18]: 100
- Plant response rating, Buckwheat, Wild [13, 19]: 95
- Plant response rating, Buckwheat, Wild [13, 20]: 100
